Assays:
CHK1 (h) = molecular target: T1, CHK1 (h) (Homo sapiens, UniProt O14757); assay: Chk-1 kinase inhibiting activity (Upstate radiometric assay); format: biochemical
T1 construct: purchased Upstate Ltd (assay run at Upstate)
T1 sequence (O14757 1-476): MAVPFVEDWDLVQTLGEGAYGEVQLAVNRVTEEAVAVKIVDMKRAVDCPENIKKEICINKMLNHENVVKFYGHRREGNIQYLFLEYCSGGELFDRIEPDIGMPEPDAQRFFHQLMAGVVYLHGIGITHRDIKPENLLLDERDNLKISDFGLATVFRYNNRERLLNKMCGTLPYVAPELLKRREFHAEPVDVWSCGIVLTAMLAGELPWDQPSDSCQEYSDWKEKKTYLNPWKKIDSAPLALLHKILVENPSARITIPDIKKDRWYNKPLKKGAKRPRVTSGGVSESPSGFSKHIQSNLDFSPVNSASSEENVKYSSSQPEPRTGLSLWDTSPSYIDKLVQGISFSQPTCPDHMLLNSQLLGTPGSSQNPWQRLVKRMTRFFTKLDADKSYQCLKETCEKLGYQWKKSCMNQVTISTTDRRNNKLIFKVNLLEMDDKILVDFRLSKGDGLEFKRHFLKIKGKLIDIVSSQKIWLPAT
Procedure: The N-oxide compounds of the invention and their tertiary amine precursors were tested for activity against the Chk-1 kinase.
The Chk-1 assay was conducted at Upstate Ltd, Gemini Crescent, Dundee Technology Park, Dundee, DD2 1 SW, UK in accordance with the protocol set out below. In a final reaction volume of 25 μl, CHK1 (h) (5-10 mU) is incubated with 8 mM MOPS pH 7.0, 0.2 mM EDTA, 200 μM […], 10 mM MgAcetate and γ-33P-ATP] (specific activity approx. 500 cpm/pmol, concentration as required). The reaction is initiated by the addition of the MgATP mix. After incubation for 40 minutes at room temperature, the reaction is stopped by the addition of 5 μl of a 3% phosphoric acid solution. 10 μl of the reaction mixture is then spotted onto a P30 filtermat and washed three times for 5 minutes in 75 mM phosphoric acid and once in methanol prior to drying and scintillation counting.

[1] = molecular target: T2, human potassium channel hERG (Homo sapiens, UniProt Q12809); assay: hERG binding activity ([3H] astemizole displacement, HEK-293 membranes); conditions: 1.5 nM [3H] astemizole; for IC50: 60 minutes at 25° C.
T2 construct: expressed in transfected cells; host or cells: HEK-293
Procedure: The abilities of the N-oxide compounds of the invention and their tertiary amine precursors were tested using the assay described below.
Human recombinant HEK-293 cells stably transfected with a plasmid encoding the human potassium channel hERG were used to prepare membranes in modified HEPES pH 7.4 buffer using standard techniques. A 10 μg aliquot of membrane was incubated with 1.5 nM [^3H] astemizole in the presence of varying concentrations of test compound for 60 minutes at 25° C. The membranes were then filtered and washed three times and the filters were counted to determine the [^3H] astemizole specifically bound. From the counts, the extent of binding of the test compound and, in some cases, the IC50 values of the test compounds, were determined.

hERG potassium channel = molecular target: T3, hERG potassium channel (Homo sapiens, UniProt Q12809); assay: Functional hERG assay (patch clamp, HEK-293 cells); format: cell-based; conditions: 5-point dose response, triplicate
T3 construct: expressed in transfected cells; host or cells: HEK-293
Procedure: The N-oxide compounds of the invention and their tertiary amine precursors were each tested for hERG inhibiting activity using the method of Zhou Z, Gong Q, Ye B, Fan Z, Makielski J C, Robertson G A, January C T. Biophys J. 1998 January; 74(1):230-41.
Test compounds were tested in triplicate in a 5-point dose response curve on HEK-293 cells stably expressing the hERG potassium channel. Potassium current was measured using the patch clamp technique on a Molecular Devices Patch Express 7000. hERG channels were activated by 2 second pulses to +20 mV from a holding potential of −80 mV, and peak tail currents were recorded upon repolarization to −50 mV. This voltage-clamp pulse protocol was performed continuously during the experiment (vehicle control, test compound, washout, and positive control additions). An interpulse interval of 15 seconds allowed recovery from any residual inactivation. Test compounds were incubated with cells between 3-8 minutes until the current reached a steady state level, defined by a Standard Deviation of 0.01. After the final test compound concentration was tested, test compound was washed out with continuous perfusion of extracellular solution for 3 minutes, followed by application of positive control (10 μM Cisparide).
Test compounds were diluted in 100% DMSO at 1000× the highest concentration to be tested, vortexed, and sonicated. Visual inspection determined that compounds were completely solubilized. Test compounds were then diluted into glass vials in 100% DMSO for all test concentrations at 1000× the final concentration to be tested and vortexed. Test compounds were then diluted 1:1000 into extracellular solution and vortexed to achieve final concentration for testing. Final DMSO concentration was 0.1% for all concentrations of test compounds, Vehicle (negative) control, and Cisapride (positive) control in extracellular solution. The compositions of the solutions used were as follows:
Intracellular Soln (mM): KCl 130, EDTA 5, MgCl2 5, HEPES10, Na-ATP 5, pH=7.2 Extracellular Soln (mM): NaCl 137, KCl 4, CaCl2 1.8, MgCl2 1, Dextrose 11, HEPES 10, pH=7.4

T3 sequence (Q12809 whole entry): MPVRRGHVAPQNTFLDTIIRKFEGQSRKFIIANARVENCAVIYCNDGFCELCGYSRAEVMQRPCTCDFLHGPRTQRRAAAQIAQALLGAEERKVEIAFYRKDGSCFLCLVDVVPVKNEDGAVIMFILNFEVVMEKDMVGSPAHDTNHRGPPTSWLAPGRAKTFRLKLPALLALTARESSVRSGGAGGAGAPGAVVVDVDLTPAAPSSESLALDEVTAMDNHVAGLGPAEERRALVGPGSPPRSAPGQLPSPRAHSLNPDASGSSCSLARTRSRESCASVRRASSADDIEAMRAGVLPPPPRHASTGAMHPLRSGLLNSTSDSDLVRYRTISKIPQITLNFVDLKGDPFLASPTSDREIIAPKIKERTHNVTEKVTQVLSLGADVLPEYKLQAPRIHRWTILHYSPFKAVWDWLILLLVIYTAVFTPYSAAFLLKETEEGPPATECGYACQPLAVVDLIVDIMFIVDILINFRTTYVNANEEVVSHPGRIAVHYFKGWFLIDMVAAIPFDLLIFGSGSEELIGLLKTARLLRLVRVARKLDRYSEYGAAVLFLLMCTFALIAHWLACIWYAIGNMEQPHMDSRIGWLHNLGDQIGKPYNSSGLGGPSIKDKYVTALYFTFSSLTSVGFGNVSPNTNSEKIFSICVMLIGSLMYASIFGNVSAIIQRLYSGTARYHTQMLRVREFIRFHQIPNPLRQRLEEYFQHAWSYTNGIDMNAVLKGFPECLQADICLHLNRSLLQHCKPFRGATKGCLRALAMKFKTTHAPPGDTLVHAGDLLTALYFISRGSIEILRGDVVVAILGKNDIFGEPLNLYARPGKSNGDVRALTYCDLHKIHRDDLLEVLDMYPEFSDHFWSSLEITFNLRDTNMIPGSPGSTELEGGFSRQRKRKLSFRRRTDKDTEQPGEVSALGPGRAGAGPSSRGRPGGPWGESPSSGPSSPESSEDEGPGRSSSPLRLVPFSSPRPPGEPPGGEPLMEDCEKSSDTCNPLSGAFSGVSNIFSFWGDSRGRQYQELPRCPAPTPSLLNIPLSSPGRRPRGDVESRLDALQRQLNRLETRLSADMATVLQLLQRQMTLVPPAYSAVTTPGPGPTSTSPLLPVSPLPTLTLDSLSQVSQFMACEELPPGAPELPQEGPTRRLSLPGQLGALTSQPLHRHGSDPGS
T2 sequence (Q12809 whole entry): as above

| Compound | IC50 (CHK1 (h)) [nM] | IC50 [1] [nM] | IC50 (hERG potassium channel) [nM] | HERG Binding % @ 100 uM (extent of binding) ([1]; @ 100 uM test compound) [% @ 100 uM] |
| --- | --- | --- | --- | --- |
| CN(C)CCCOc1ccc(Cl)cc1NC(=O)Nc1cnc(C#N)cn1 [Example 3B, 1-[5-Chloro-2-(3-dimethylamino-propoxy)-phenyl]-3-(5-cyano-pyrazin-2-yl)-urea] | < 10 | 5120 | 435 |  |
| C[N+](C)([O-])CCCOc1ccc(Cl)cc1NC(=O)Nc1cnc(C#N)cn1 [Example 3C, 1-[5-Chloro-2-(3-dimethyloxyamino-propoxy)-phenyl]-3-(5-cyano-pyrazin-2-yl)-urea] | 24 |  | 16300 | 46 |
| CN(C)CCCOc1ccc(Cl)cc1NC(=O)Nc1ccc(C#N)cn1 [Example 4B, 1-[5-Chloro-2-(3-dimethylamino-propoxy)-phenyl]-3-(5-cyano-pyridin-2-yl)-urea] | 279 | 445 | 130 |  |
| C[N+](C)([O-])CCCOc1ccc(Cl)cc1NC(=O)Nc1ccc(C#N)cn1 [Example 4C, 1-[5-Chloro-2-(3-dimethyloxylamino-propoxy)-phenyl]-3-(5-cyano-pyridin-2-yl)-urea] | 581 | 7670 | 2440 |  |

From patent US20090270416A1, “N-OXIDES OF DIARYLUREA DERIVATIVES AND THEIR USE AS Chk1 INHIBITORS FOR THE TREATMENT OF CANCER” (SENTINEL ONCOLOGY LIMITED, priority 2006, published 2009)
